Data: US12286442B2, “Methods and materials for increasing transcription factor eb polypeptide levels” (University of Pittsburgh—Of the Commonwealth System of …, priority 2019, dated 2025)

Columns and labels:
TFEB = experiment: High content screen measuring TFEB nuclear accumulation (TFEB nuclear/cytosol ratio) in BEAS-2B cells stably expressing TFEB-EGFP; format: cell-based, human; details: 18 hours incubation
How it was run: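 Readout: lowest compound concentration giving a 25% rise in nuclear/cytosol TFEB-GFP ratio, from DAPI-masked nuclear and mask-expanded cytosolic signals. Cells (BEAS-2B, TFEB-EGFP stable, ~2300–2500/well) rested 8 hours, then treated 18 hours with compound serial dilutions in 2% FBS medium before PFA fixation and DAPI staining.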

BEAS-2B cells = experiment: Toxicity: compound concentration needed to induce greater than 50 percent of cell loss; format: cell-based, human; details: 18 hours incubation
How it was run: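 Reported value is the concentration giving greater than 50 percent cell loss, grouped into bins (≥25 μM; between 1 and 25 μM; ≤1 μM as "+++"). Measured by high-content imaging of DAPI-stained BEAS-2B TFEB-EGFP cells fixed after 18 h compound exposure.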

| SMILES | efficacy (minimal compound concentration needed to increase TFEB nuclear/cytosol ratio by 25%) (TFEB) | toxicity (compound concentration needed to induce greater than 50 percent of cell loss) (BEAS-2B cells) |
| --- | --- | --- |
| Cc1ccc2nc(-c3ccncc3)nc(Nc3ccc4nc(C(C)C)sc4c3)c2c1 [Compound 154] | +++ (“+++” equals ≤1 μM) | + (cell loss of greater than 50 percent at a concentration that equals or is greater than 25 μM was represented as) |
| Fc1cccc(Nc2nc(-c3ccncc3)nc3ncccc23)c1 [Compound 82] | +++ (“+++” equals ≤1 μM) | + (cell loss of greater than 50 percent at a concentration that equals or is greater than 25 μM was represented as) |
| Fc1cccc(Nc2nc(-c3cncnc3)nc3ccccc23)c1 [Compound 8] | + (“+” equals >25 μM) | + (cell loss of greater than 50 percent at a concentration that equals or is greater than 25 μM was represented as) |
| c1ccc2c(Nc3ccc4cnccc4c3)nc(-c3cncs3)nc2c1 [Compound 388] | + (“+” equals >25 μM) | + (cell loss of greater than 50 percent at a concentration that equals or is greater than 25 μM was represented as) |
| CCc1nc2ccc(Nc3nc(-c4ccncc4)nc4cccc(OC)c34)cc2s1 [Compound 361] | ++ (“++” equals between ≤25 μM and >1 μM) | + (cell loss of greater than 50 percent at a concentration that equals or is greater than 25 μM was represented as) |
| c1ccc2c(Nc3ccc4[nH]nnc4c3)nc(-c3cncs3)nc2c1 [Compound 387] | + (“+” equals >25 μM) | + (cell loss of greater than 50 percent at a concentration that equals or is greater than 25 μM was represented as) |
| FC1(F)Oc2ccc(Nc3nc(-c4ccncc4)nc4ccccc34)cc2O1 [Compound 17] | + (“+” equals >25 μM) | + (cell loss of greater than 50 percent at a concentration that equals or is greater than 25 μM was represented as) |
| CCc1nc2ccc(Nc3nc(-c4ccncc4)nc4cccc(F)c34)cc2s1 [Compound 368] | ++ (“++” equals between ≤25 μM and >1 μM) | + (cell loss of greater than 50 percent at a concentration that equals or is greater than 25 μM was represented as) |
| Cn1ncc2ccc(Nc3nc(-c4ccncc4)nc4ccccc34)cc21 [Compound 23] | +++ (“+++” equals ≤1 μM) | + (cell loss of greater than 50 percent at a concentration that equals or is greater than 25 μM was represented as) |
| COc1ccc2c(Nc3ccc4[nH]ccc4c3)nc(-c3ccncc3)nc2c1 [Compound 114] | +++ (“+++” equals ≤1 μM) | ++ (cell loss of greater than 50 percent at a concentration less than 25 μM and greater than 1 μM was represented as) |
| NS(=O)(=O)CCCNc1nc(-c2ccncc2)nc2ccccc12 [Compound 174] | + (“+” equals >25 μM) | + (cell loss of greater than 50 percent at a concentration that equals or is greater than 25 μM was represented as) |
| O=C(Cn1c(=O)n(-c2ccccc2)c(=O)c2ccccc21)N1CCOCC1 [Compound 230] | + (“+” equals >25 μM) | + (cell loss of greater than 50 percent at a concentration that equals or is greater than 25 μM was represented as) |
| c1ccc2c(Nc3ccc4[nH]ncc4c3)cc(-c3ccncc3)nc2c1 [Compound 68] | + (“+” equals >25 μM) | + (cell loss of greater than 50 percent at a concentration that equals or is greater than 25 μM was represented as) |
| COc1ccc(-n2c(=O)c3ccccc3n(Cc3ccccc3F)c2=O)cc1 [Compound 235] | ++ (“++” equals between ≤25 μM and >1 μM) | + (cell loss of greater than 50 percent at a concentration that equals or is greater than 25 μM was represented as) |
| Cc1nc2ccc(Nc3nc(-c4ccncc4)nc4c(C)cccc34)cc2s1 [Compound 378] | +++ (“+++” equals ≤1 μM) | + (cell loss of greater than 50 percent at a concentration that equals or is greater than 25 μM was represented as) |
| O=C1Cc2cc(Nc3nc(-c4ccncc4)nc4ccccc34)ccc2N1 [Compound 40] | ++ (“++” equals between ≤25 μM and >1 μM) | + (cell loss of greater than 50 percent at a concentration that equals or is greater than 25 μM was represented as) |
| CCc1ccc(-n2c(=O)c3ccc(C(=O)NCCc4ccccc4)cc3n(Cc3ccccc3C#N)c2=O)cc1 [Compound 231] | ++ (“++” equals between ≤25 μM and >1 μM) | + (cell loss of greater than 50 percent at a concentration that equals or is greater than 25 μM was represented as) |
| c1ccc2c(Nc3ccc4[nH]ccc4c3)nc(-c3cncs3)nc2c1 [Compound 78] | ++ (“++” equals between ≤25 μM and >1 μM) | + (cell loss of greater than 50 percent at a concentration that equals or is greater than 25 μM was represented as) |
| c1ccc2c(Nc3ccc4nccnc4c3)nc(-c3ccncc3)nc2c1 [Compound 103] | +++ (“+++” equals ≤1 μM) | + (cell loss of greater than 50 percent at a concentration that equals or is greater than 25 μM was represented as) |
| Cc1cc(C)cc(-n2c(=O)c3ccccc3n(CC(=O)Nc3c(C)cc(C)cc3C)c2=O)c1 [Compound 223] | + (“+” equals >25 μM) | + (cell loss of greater than 50 percent at a concentration that equals or is greater than 25 μM was represented as) |
| Cc1ccc(Nc2nc(-c3ccc(C)cc3)nc3ccccc23)cc1 [Compound 197] | + (“+” equals >25 μM) | + (cell loss of greater than 50 percent at a concentration that equals or is greater than 25 μM was represented as) |
| CC(C)c1nc2ccc(Nc3nc(-c4ccncc4)nc4ccc(F)cc34)cc2s1 [Compound 354] | + (“+” equals >25 μM) | + (cell loss of greater than 50 percent at a concentration that equals or is greater than 25 μM was represented as) |
